# Test system: L1 ORF2p-facilitated Alu RNA-induced RPE degeneration
# Assay: Alu RNA-induced RPE degeneration in L1 ORF2-expressing Oryzomys palustris
# Assay type: in vivo
# Conditions: high dose (500 μmol)
# Description: Assessment of RPE degeneration. Subretinal injections were performed as previously described (Kaneko et al., 2011; Tarallo et al., 2012; Kerur et al., 2013; Fowler et al., 2014; Kim et al., 2014). Seven days after subretinal injection, RPE health was assessed by fundus photography and immunofluorescence staining of zonula occludens-1 (ZO-1) on RPE flat mounts (whole mount of posterior eye cup containing RPE and choroid layers). Mouse RPE/choroid flat mounts were fixed with 2% paraformaldehyde, stained with rabbit polyclonal antibodies against mouse ZO-1 (1:100; Invitrogen Corp. Carlsbad, Calif., United States of America) and visualized with Alexa-594 (Invitrogen Corp.). […]
# Quantification of RPE degeneration. Quantification of RPE degeneration was performed using two methodologies (binary assignment and cellular morphometry) as described previously (Kerur et al., 2018): Binary assignment (healthy versus unhealthy; Kerur et al., 2013; Fowler et al., 2014; Kim et al., 2014; Kerur et al., 2018) was independently performed by two blinded raters (inter-rater agreement=99.7%; Pearson r2=0.986, P<0.0001; Fleiss x=0.993, P<0.0001). […]
structure (smiles),measurement,value
"CC(C)Nc1cccnc1N1CCN(C(=O)c2cc3cc(NS(C)(=O)=O)ccc3[nH]2)CC1 [DLV, delavirdine]",Alu RNA-induced RPE degeneration,blocked

# — patent US20210348164A1, “ENDOGENOUS CYTOPLASMIC ALU COMPLEMENTARY DNA IN AGE-RELATED MACULAR DEGENERATION” (University of Virginia Patent Foundation, priority 2018, published 2021)
